# Reference: publication PMC11742080, “Decavanadate Compound Displays In Vitro and In Vivo Antitumor Effect on Melanoma Models” (Bioinorganic Chemistry and Applications, 2025)
# pIC50: −log10 of the molar value. “And” between values parts separate entries of the source, which are not always exact repeats. Equal values may be shown once.
# Experiments:
# [1] = Stability of the stock solution (activity retained); format: physicochemical; conditions: 1 mg/mL stock kept at +4°C, experiments repeated after 2 months
# Description: Four cutaneous melanoma cell lines IGR39, IGR37, SKMEL28, and B16-F10 were treated with increasing concentrations of the decavanadate compound (Figure 3). A stock solution was prepared at a concentration of 1 mg/mL and kept at a temperature of +4°C. The dilutions were made just before the treatment. Figures 3(a) and 3(b) show the dose–response effect of Mg2Na2V10O28·20H2O compound on the viability of different melanoma cell lines, after 24 and 72 h of treatments, respectively.
# [2] = tested on: SKMEL28 human melanoma cells; assay: MTT cell viability assay, SKMEL28; format: cell-based
# Description: (§1) The MTT assay was first described as a sensitive, quantitative, and reliable colorimetric assay to measure the viability, proliferation, and activation of cells. Cell viability was assessed at 24 and 72 h of treatment to evaluate cytotoxicity and the effect on cell proliferation of the decavanadate compound, respectively. The concentrations of the decavanadate compound have been determined by weighing the compound in its crystal form and then solubilizing it in distilled water.
# (§2) All cell lines were seeded in 96-well plates (Nunc, Roskilde, Denmark) at a density of 10^4 cells per well and were incubated overnight, before treatment with different concentrations of the decavanadate compound. After 24 or 72 h of treatment, fresh media solution containing MTT at 0.5 mg/mL was added to cells and incubated for 3 h at 37°C. The formed formazan crystals were then dissolved in DMSO, and the absorbance was measured at 560 nm using a BioTek EON Microplate Spectrophotometer (Fisher Scientific). Cell viability was expressed as a percentage of the viable cell number of the untreated cells (control [CTR]).
# (§3) The concentration of the decavanadate compound required for 50% growth inhibition (IC50 value) was estimated as resulting in a 50% decrease in absorbance, compared to the CTR.
# [3] = tested on: B16-F10 murine melanoma cells; assay: MTT cell viability assay, B16-F10; format: cell-based
# Description: as §1, §2, §3
# [4] = tested on: HaCaT normal human keratinocytes; assay: MTT cell viability assay, HaCaT; format: cell-based
# Description: as §1, §2, §3
# [5] = tested on: IGR37 human melanoma cells; assay: MTT cell viability assay, IGR37; format: cell-based
# Description: as §1, §2, §3
# [6] = tested on: IGR39 human melanoma cells; assay: Wound healing (scratch) cell migration assay; format: cell-based; conditions: 24 h treatment
# Description: Wound healing (or scratch) assay is a method to measure two-dimensional cell migration. An artificial gap is generated on a confluent cell monolayer, and the movement is tracked via microscopy or other imaging. Melanoma cells were seeded in 24-well plates at 15 × 10^4 cells per well and incubated for 24–48 h. After cells reached 90% confluence, wounds were generated using a 10 μL micropipette tip. Media were removed, and the cells were washed with 500 μL PBS and then incubated in a fresh medium containing different concentrations (not showing cytotoxic effect) of the decavanadate compound. After 24 h of treatment, cells were washed with PBS, fixed with cold ethanol, and stained with Giemsa. Images were acquired on an inverted microscope at T0 and after 24 h (T24). The percentage of cell migration was calculated using the following formula: cell migration(%)=[(T0 − T24))/(T0)] × 100 where T0 is the wound area at zero time and T24 is the wound area after 24 h. All the pictures were taken with a DM-IRE microscope (Leica, Rueil-Malmaison, France) coupled with a digital camera (CCD camera CoolSNAP FX, Princeton Instruments, Trenton, NJ).
# Swiss albino mice = assay: In vivo toxicity/safety assessment, 12 days i.p.; conditions: for ALT / AST / Creatinine: plasma
# Description: In order to investigate the safety of the Mg2Na2V10O28·20H2O compound, three doses of 20, 50, and 100 μg were tested on male Swiss albino mice of ∼20 g weight each. Mice were randomly allocated in four groups of eight mice each. These doses correspond to 1, 2.5, and 5 mg/kg, respectively. A stock solution of 7.5 mg/mL (5.5 mM) was first prepared in PBS (1x). Dilutions were done to obtain 3 solutions of 0.2 mg/mL (146 μM), 0.5 mg/mL (366 μM), and 1 mg/mL (732 μM) in PBS, from which a volume of 100 μL was injected to each mouse, corresponding to the three doses. These doses were chosen based on our previous study. Mice of the CTR group received 100 μL of PBS. Decavanadate compound or vehicle was administered daily by intraperitoneal injection for 12 consecutive days in the morning between 09:00 and 10:00 a.m.
# Animals were observed individually for general behavior, toxicity symptoms, and mortality during the first 30 min and then daily during the experiment. The body weights were measured at the beginning and at the end of the […]. On Day 12, blood samples were drawn from the facial vein of each mouse, using capillary tubes, containing heparin (as an anticoagulant component), for biochemical parameters studies. Mice were then sacrificed by cervical dislocation, and their organs (liver and kidney) were excised. The organs were then fixed in 10% buffered formalin for histopathological examination.
# Plasma samples were obtained by blood centrifugation at 3000 rpm for 10 min and kept at −20°C. The activities of hepatic enzymes, such as aspartate aminotransferase (AST) and alanine aminotransferase (ALT), and creatinine levels were assessed with commercially available diagnostic kits supplied by Biomaghreb Laboratories (Tunisia). Enzymatic activity was expressed in international units per liter (IU/L). Additionally, we focused on measuring the activity of enzymes involved in hepatic metabolism to evaluate the effect of decavanadate accumulation on liver function. Creatinine level was expressed in mg/L.
# Liver and kidney organs in formalin were washed and dehydrated using alcohol. Paraffin-embedded sections were cut at 5-6 μm thickness and stained with hematoxylin and eosin for microscopic examination at 20x and 40x magnification.
substance,measurement,setting,value
dimagnesium disodium decavanadate icosahydrate [Mg2Na2V10O28·20H2O],Stability of stock solution,[1],the compound is stable
same,pIC50,"[2]; SKMEL28, 24 h treatment",4.97
same,pIC50,"[2]; SKMEL28, 72 h treatment",5.39
same,pIC50,"[3]; B16-F10, 24 h treatment",5.14
same,pIC50,"[3]; B16-F10, 72 h treatment",5.55
same,Effect on viability of normal keratinocytes,[4]; 24 h treatment,little effect
same,pIC50,"[4]; 24 h treatment, MTT",< 4.15
same,pIC50,"[4]; 72 h treatment, MTT",5.05
same,"IC50, cell viability","[4]; 72 h treatment, MTT",12.7 µg/mL
same,pIC50,"[5]; IGR37, 24 h treatment",4.90
same,pIC50,"[5]; IGR37, 72 h treatment",5.85
same,"IC50, cell viability","[5]; IGR37, 72 h treatment",2 µg/mL
same,pIC50,[6],5.65
same,"IC50, IGR39 cell migration",[6],3.16 µg/mL
same,Liver histological analysis,"Swiss albino mice; 50 μg (2.5 mg/kg), 12 days",necrosis
same,Liver histological analysis,"Swiss albino mice; 100 μg (5 mg/kg), 12 days",lymphohistiocytic inflammatory infiltrate in the portal tract
same,"Biochemical parameters (AST, ALT, creatinine) versus control","Swiss albino mice; 1 mg/kg i.p. daily, 12 days",comparable to the negative CTR
same,ALT,"Swiss albino mice; 2.5 mg/kg i.p. daily, 12 days",48.75 ± 2.96 IU/L
same,AST,"Swiss albino mice; 2.5 mg/kg i.p. daily, 12 days",32.83 ± 1.09 IU/L
same,Creatinine,"Swiss albino mice; 2.5 mg/kg i.p. daily, 12 days",2.45 mg/L and 2.45 ± 0.28^∗ mg/L
same,Kidney histology,"Swiss albino mice; 2.5 mg/kg, 12 days",no difference compared to those of the CTR group
same,ALT,"Swiss albino mice; 5 mg/kg i.p. daily, 12 days",81.67 ± 5.12^∗∗∗ IU/L
same,AST,"Swiss albino mice; 5 mg/kg i.p. daily, 12 days",45.63 ± 1.21^∗∗ IU/L
same,Creatinine,"Swiss albino mice; 5 mg/kg i.p. daily, 12 days",2.80 ± 0.312^∗∗ mg/L
same,Kidney histology,"Swiss albino mice; 5 mg/kg, 12 days",mild interstitial lymphocytic inflammatory infiltrate
same,"Mortality and signs of toxicity (weight loss, behavioral abnormalities)","Swiss albino mice; 1, 2.5 or 5 mg/kg, i.p. daily for 12 days, Swiss albino mice",No mortality or signs of toxicity
